Measurements reported in the NIST ThermoML archive (doi:10.1021/je034078h).
Numbers after ± are expanded uncertainties.

Assay: xn = mol fraction of the nth substance listed
Details: 101.3 kPa, Liquid; for viscosity: Capillary tube (Ostwald / Ubbelohde) method; for electrical conductivity: Shanghai Precision & Scientific Instrument Co., LTD (DDS-307)

Compound | viscosity (293.15 K, x2 = 0.2) [mPa·s] | electrical conductivity (293.15 K, x2 = 0.2) [S/m] | viscosity (298.15 K, x2 = 0.2) [mPa·s] | electrical conductivity (298.15 K, x2 = 0.2) [S/m] | viscosity (303.15 K, x2 = 0.2) [mPa·s] | electrical conductivity (303.15 K, x2 = 0.2) [S/m] | viscosity (308.15 K, x2 = 0.2) [mPa·s] | electrical conductivity (308.15 K, x2 = 0.2) [S/m] | viscosity (288.15 K, x2 = 0.2) [mPa·s] | viscosity (288.15 K, x2 = 0.48) [mPa·s] | electrical conductivity (288.15 K, x2 = 0.2) [S/m] | electrical conductivity (288.15 K, x2 = 0.48) [S/m] | viscosity (293.15 K, x2 = 0.48) [mPa·s] | electrical conductivity (293.15 K, x2 = 0.48) [S/m] | viscosity (298.15 K, x2 = 0.48) [mPa·s] | electrical conductivity (298.15 K, x2 = 0.48) [S/m] | viscosity (303.15 K, x2 = 0.48) [mPa·s] | electrical conductivity (303.15 K, x2 = 0.48) [S/m] | viscosity (308.15 K, x2 = 0.48) [mPa·s] | electrical conductivity (308.15 K, x2 = 0.48) [S/m]
CCCCn1cc[n+](C)c1.F[P-](F)(F)(F)(F)F [1-butyl-3-methylimidazolium hexafluorophosphate] + O | 166.4 ± 9.4 | 0.0033 ± 0.0002 | 128.7 ± 5.2 | 0.00372 ± 0.00022 | 99.2 ± 3.9 | 0.00429 ± 0.00026 | 78.2 ± 3.4 | 0.00478 ± 0.00029 | – | – | – | – | – | – | – | – | – | – | – | –
CCCCn1cc[n+](C)c1.F[P-](F)(F)(F)(F)F [1-butyl-3-methylimidazolium hexafluorophosphate] + CC(C)=O | 127 ± 5.1 | 0.00342 ± 0.00021 | 100.2 ± 3.9 | 0.00375 ± 0.00023 | 79.8 ± 3 | 0.00429 ± 0.00026 | 64.1 ± 2.4 | 0.00467 ± 0.00028 | 165 ± 6.9 | 25.1 ± 0.9 | 0.00298 ± 0.00018 | 0.00925 ± 0.00056 | 21.2 ± 0.7 | 0.00965 ± 0.00058 | 18.2 ± 0.6 | 0.0102 ± 0.00061 | 16 ± 0.5 | 0.0106 ± 0.00064 | 13.8 ± 0.5 | 0.011 ± 0.00066
CCCCn1cc[n+](C)c1.F[P-](F)(F)(F)(F)F [1-butyl-3-methylimidazolium hexafluorophosphate] + CCO | 148.1 ± 6.2 | 0.00336 ± 0.0002 | 113.7 ± 4.5 | 0.0038 ± 0.00023 | 88.4 ± 3.4 | 0.0043 ± 0.00026 | 71.5 ± 2.7 | 0.00475 ± 0.00029 | 200.6 ± 8.7 | 48 ± 1.7 | 0.00302 ± 0.00018 | 0.0068 ± 0.00041 | 37.7 ± 1.3 | 0.00733 ± 0.00044 | 30.1 ± 1 | 0.00798 ± 0.00048 | 24.8 ± 0.8 | 0.00863 ± 0.00052 | 21 ± 0.7 | 0.00933 ± 0.00056
